Read-outs that look alike come from different tables or passages of the source. No end group written: not given here.
Assays:
[1] = tested on: hybrid neuroblastoma-glioma NG108–15 cell line; experiment: Neuroprotection in acutely stressed NG108–15 cells; format: cell-based; conditions: near-confluent NG108–15, 50 μg/ml peptide, 24 hr
Procedure: In order to assess whether shared epitope-containing peptides exert a neuroprotective effect, preliminary experiments were carried out with the hybrid neuroblastoma-glioma NG108–15 cell line. Cells (10^5/ml) were first cultured overnight at near-confluence in 24-well plates in DMEM medium supplemented with 1% fetal calf serum (FCS). Under these conditions, NG108–15 cells show a flat, multipolar morphology and neurite formation. After 20 hours, cells were stressed acutely in serum-free medium (by aspiration of the medium and replacement with serum-free DMEM) with 50 μg/ml of peptides and evaluated morphologically at different time points thereafter. […] Morphological differences between cultures treated with different peptides could be observed as early as 5–6 hrs after treatment. The photographs shown were taken at the 24 hr time point. In another experiment (FIG. 12C), NG108–15 cells were cultured at low cell density (2×10^4/ml) in 1% FCS-containing DMEM medium overnight. The next day cells were subjected to acute stress in serum-free and low glucose (RPMI1640) medium (after aspiration of the 1% FCS DMEM) in the presence of 50 μg/ml of either 65–78*0401 [SEQ ID NO: 6] or 65–78*0402 [SEQ ID NO: 8] peptides. After 72 hours, cells were fixed with 1% formaldehyde and inspected microscopically. Mean±SEM was determined by averaging cell counts in eight randomly-selected microscopic fields in 200× magnification. Neurite-positive cells were defined as cells with one or more projections extending at least twice as long as the cell diameter. […] (FIG. 12C). The calculated number of neurite-positive cells was over 6-fold higher in shared epitope-containing peptide-cultured cells. When cultured in the presence of lysophosphatidic acid or high concentrations of serum, neuronal cells undergo neurite retraction (130). […] Thus, it is concluded that shared epitope-containing peptides may exert neuroprotective effects.

[2] = tested on: human fibroblastoid line M1 cells; conditions: for Block of the inhibitory effect of shared epitope peptide (Bead*0401) on 2CA-induced DNA repair: prior incubation of M1 cells: L-NMA 5 mM overnight, KT5823 1 μM 10 min; for Block of 2CA-triggered DNA repair activity: 10 μM 2CA, co-incubation with various concentrations; for Inhibition of cAMP-dependent (2CA-induced) DNA repair induction / genoprotective pathway by pentapeptide: M1 cells preincubated overnight with 50 μg/ml synthetic pentapeptide
Description: To further determine the signaling pathways involved in DNA repair induction, the inventors used the Trevigen CometAssay™ kit (Cat. No. 4250-50-K). The CometAssay is a single-cell gel electrophoresis method that can measure a variety of types of DNA damage, and repair of damage, in individual cells. The assay is based on the alkaline lysis of labile DNA at sites of damage. The unwound, relaxed DNA is able to migrate out of the cell during electrophoresis and can be visualized by SYBR Green staining.
To quantify DNA damage, cells were collected and three parallel samples were processed (a negative control, a DNA damage control (H2O2) and a sample subjected to H2O2 following exposure to various modulators of the cAMP signaling pathway). Cells are then washed in PBS. The washed cells are combined with molten low-melting agarose (Trevigen Cat. No. 4250-50-02) and transferred to a CometSlide™ (Trevigen Cat. No. 4250-100-03). The slides are immersed in lysis buffer for 30 min, on ice, in the dark. The slides are then treated with alkali buffer for 20 to 60 min at room temperature in the dark. The slides are then electrophoresed in buffer for 10 min at 20 volts, then fixed in methanol and ethanol. The slides are then stained with SYBR green (Trevigen Cat. No. 4250-50-05) solution and fluorescently imaged with a Diagnostic Instruments digitized camera, mounted on a Nikon Eclipse E400 microscope. Scion Image software is used to quantitate the comet tail intensity. Each data point is derived from tail fluorescent intensity determination in 50–100 individual cells. Data is presented as % DNA repair (the percent decrement in tail fluorescence intensity in agonist or antagonist-treated cells, relative to the intensity recorded in cells treated with H2O2 only)±SEM. (R.U.s)
To directly examine that possibility, cells were incubated overnight with synthetic peptides corresponding to the region contained within amino acids 65–79 and their ability to mount DNA repair activity in response to cAMP-elevating agents was determined. M1 cells were preincubated overnight with 50 μg/ml of synthetic peptides corresponding to the region surrounding the third allelic hypervariable region (aa 65–79) of each of the following DRβ chains: *0401 (65–79*0401) [SEQ ID NO: 5], *0402 (65–79*0402) [SEQ ID NO: 7], *0403 (65–79*0403) [SEQ ID NO: 9] or *0404(65–79*0404) [SEQ ID NO: 10]. At the end of the preincubation, cells were collected, washed and 2CA-induced DNA repair was determined as above. Table 3 (above) lists the different third allelic hypervariable region peptides used in the entire study disclosed here.
A modified method as described previously by Auger et al. [Nature Med 2:306–310 1996] was used. Briefly, cyanogen bromide activated Speharose 4B (1.5 ml) was washed with 1 mM HCl and incubated with peptides in 0.1 M NaHCO3 and 0.5 M NaCl (pH 8) buffer overnight at 4° C. For each peptide, 5 mg was used per milliliter of Sepharose. Free Sepharose groups were blocked with 0.2 M glycine (pH 8) for 2 hours at room temperature. Columns were washed at 4° C. with the following buffers: 0.1 M NaHCO3, 0.5 M NaCl (pH 8) buffer, then 0.5 M CH3COONa (pH 4) buffer and finally PBS at pH 7.5. M1 cells were plated at a density of 0.5×10^6 cells per well (6 well plate) in 10% FBS DMEM medium until 70–80% confluence. Prior to incubation with peptides, cultures were changed to serum-free DMEM medium, then evenly overlaid with 50 μg bead conjugated peptides, and incubated for the indicated period. Soluble peptides were added overnight to M1 cells at a concentration of 50 μg/ml.

[3] = tested on: M1 cells; experiment: Intracellular cAMP level (enzyme immunoassay) in M1 cells after 2CA; format: cell-based, human; conditions: M1 cells preincubated 10 min with peptide-conjugated beads, 10 or 100 μM 2CA
Procedure: cAMP was determined by using an Amersham Pharmacia Biotech cAMP enzymeimmunoassay (EIA) system (code RPN 225). The reagents are prepared as described by the manufacturer (lysis reagents 1 and 2, the standard for the non-acetylation assay, the anti-cAMP antiserum, the cAMP peroxidase conjugate and wash buffer). […] Samples are added, followed by the antiserum solution. Following the recommended incubation, cAMP-peroxidase conjugate is added and incubated according to the recommended protocol. Each well is then aspirated and washed, and enzyme substrate is added and incubated. The results can then be read at 630 nm or at 450 nm (depending on the time of incubation and method of stopping the reaction), again according to the manufacturer's protocol.
A.) cAMP levels were assayed in M1 cells that were preincubated for 10 minutes with peptide-conjugated beads [Bead*0401, SEQ ID NO:6; Bead*0402, SEQ ID NO: 8], and intracellular cAMP level changes in response to stimulation with either 10 μM (FIG. 10A, top) or 100 μM (FIG. 10A, bottom) of 2CA were determined at different time points. cAMP levels were measured using a commercial enzyme immunoassay kit from Pharmacia. Results are expressed as fold increase of cAMP above baseline levels.

[4] = tested on: Protein kinase A (PKA); experiment: PKA activity in M1 cells after 2CA; format: cell-based, human; conditions: M1 cells preincubated with peptide-conjugated beads, 10 μM 2CA
Procedure: Protein kinase A (PKA) was measured using the Life Technologies™ Protein Kinase A (cAMP-dependent Protein Kinase) Assay System (Cat. No. 13128-012). The basis of the assay system is the use of a heptapeptide substrate and a 17-amino acid inhibitor peptide (which is valuable for proving PKA-specific protein kinase activity). Four assay conditions per experimental condition are recommended by the manufacturer (+/− inhibitor and +/− cAMP) to determine total PKA-specific kinase activity and proportion of PKA activated in the cells or tissue of interest. Briefly, the four parallel assay conditions are set up for each of the four assay conditions for a given cell or tissue sample, according to the manufacturer's instructions. Substrate and [γ-^32P]ATP (3000–6000 Ci/mmol stock solution) are then added to each tube, and incubated according to the manufacturer's instructions. Following the incubation period, a sample from each tube is spotted onto a […] disc, which is the acid washed prior to scintillation counting (all according to the manufacturer's instructions). Activity can then be determined as described by the manufacturer of the kit.
B.) PKA activity was determined in M1 cells preincubated with peptide-conjugated beads [Bead*0401, SEQ ID NO: 6; Bead*0402, SEQ ID NO: 8], at different time points following treatment with 10 μM 2CA as above.

Question: Which “Cell morphology after acute serum-free stress” value [1] does the source give for “KDILEDERAAVDTY [65–78*0402, control peptide, amino acids 65–78 of the β chain encoded by the HLA-DRB*0402 allele]” here?
Answer: The value was “adjacent cells showed a rounding effect and collapsed into aggregates”.

Question: With `CNC(=N)NCCC[C@H](N)C(=O)O` [L-NMA, NG-methyl-L-arginine, reference compound] as the molecule, how does the “Block of the inhibitory effect of shared epitope peptide (Bead*0401) on 2CA-induced DNA repair” value [2] read?
Answer: Its value is “could be blocked”.

Question: How did the “cAMP level response to 2CA” value [3] turn out when “Bead*0402: Sepharose beads chemically conjugated to 14-mer peptide, residues 65–78 of DRβ*0402 chain [SEQ ID NO: 8] (KDILEDERAAVDTY; also: conjugated to Sepharose beads)” was run?
Answer: The value was “mounted substantial response to the agonist”.

Question: And the “PKA activation following 2CA” value [4]?
Answer: Its value is “mounted substantial response to the agonist”.

Question: `CCCn1c(=O)[nH]c(=O)c2[nH]cnc21` [enprofylline, reference compound] was tested. Which “Block of 2CA-triggered DNA repair activity” value [2] did it give?
Answer: The value was “could be blocked”.

Question: Which “Inhibition of cAMP-dependent (2CA-induced) DNA repair induction / genoprotective pathway by pentapeptide” value [2] does the source give for Gln Lys Cys Leu Ala (QKCLA) here?
Answer: The value was “equally effective in suppressing cAMP signaling”.

Question: What about the “Inhibition of cAMP-dependent (2CA-induced) DNA repair induction / genoprotective pathway by pentapeptide” value ([2]; listed as #5) of the same molecule?
Answer: The value was “efficiently inhibited the genoprotective pathway”.

Question: For `COC(=O)[C@@]1(OC)C[C@H]2O[C@]1(C)n1c3ccccc3c3c4c(c5c6ccccc6n2c5c31)C(=O)N(C)C4` [KT5823, reference compound], which “Block of the inhibitory effect of shared epitope peptide (Bead*0401) on 2CA-induced DNA repair” value [2] is on record?
Answer: The value was “could be blocked”.

Question: What does the source list for “Bead*0401: Sepharose beads chemically conjugated to 14-mer peptide, residues 65–78 of DRβ*0401 chain [SEQ ID NO: 6] (KDLLEQKRAAVDTY; also: conjugated to Sepharose beads)”?
Answer: Block of cAMP-mediated (2CA-induced) DNA repair by Sepharose bead-conjugated peptide ([2]; M1 cells preincubated for various times with peptide-conjugated beads): blocked cAMP-mediated DNA repair; cAMP level response to 2CA [3]: failed to increase cAMP levels; PKA activation following 2CA [4]: failed to increase cAMP levels or activate PKA

Question: Which results are given for Gln Lys Arg Ala Ala (QKRAA)?
Answer: Inhibition of cAMP-dependent (2CA-induced) DNA repair induction / genoprotective pathway by pentapeptide [2]: had a similar effect; Inhibition of cAMP-dependent (2CA-induced) DNA repair induction / genoprotective pathway by pentapeptide ([2]; listed as #1): efficiently inhibited the genoprotective pathway

Question: Which “Block of 2CA-triggered DNA repair activity” value [2] does the source give for `CC(=O)N[C@H](C(=O)O)C(C)(C)SN=O` (racemic) [SNAP, S-Nitroso-N-Acetylpenicillamine, reference compound] here?
Answer: The value was “completely blocked”.

Question: With “HBc*0401: recombinant chimeric hepatitis B core protein with insertion of amino acids 65–79 of the β chain encoded by HLA-DRB*0401” as the molecule, how does the “Suppression of cAMP signaling (2CA-induced DNA repair)” value ([2]; M1 cells preincubated overnight with 50 μg/ml recombinant HBc particles) read?
Answer: The value was “effectively suppressed cAMP signaling”.

Question: Which “Block of 2CA-triggered DNA repair activity” value [2] does the source give for `Nc1nc2c(nc(Br)n2[C@@H]2O[C@@H]3COP(=O)(O)O[C@H]3[C@H]2O)c(=O)[nH]1` [8-Br-cGMP, 8-bromo-cyclic GMP, reference compound] here?
Answer: The value was “completely blocked”.

Question: Which results are given for Gln Arg Arg Ala Ala (QRRAA)?
Answer: Inhibition of cAMP-dependent (2CA-induced) DNA repair induction / genoprotective pathway by pentapeptide [2]: inhibited completely cAMP-dependent DNA repair induction; Inhibition of cAMP-dependent (2CA-induced) DNA repair induction / genoprotective pathway by pentapeptide ([2]; listed as #2): efficiently inhibited the genoprotective pathway

Question: `CCCn1c(=O)c2[nH]c(-c3ccc(OCC(=O)NCCN)cc3)nc2n(CCC)c1=O` [XAC, reference compound] was tested. Which “Block of 2CA-triggered DNA repair activity” value [2] did it give?
Answer: Its value is “could be blocked”.

Question: How did the “Inhibition of cAMP-dependent (2CA-induced) DNA repair induction / genoprotective pathway by pentapeptide” value [2] turn out when Gln Glu Cys Leu Ala (QECLA) was run?
Answer: The value was “failed to do so”.

Question: What does the source list for Gln Lys Arg Leu Ala (QKRLA)?
Answer: Inhibition of cAMP-dependent (2CA-induced) DNA repair induction / genoprotective pathway by pentapeptide [2]: equally effective in suppressing cAMP signaling; Inhibition of cAMP-dependent (2CA-induced) DNA repair induction / genoprotective pathway by pentapeptide ([2]; listed as #3): efficiently inhibited the genoprotective pathway

Question: Which “Block of 2CA-triggered DNA repair activity” value [2] does the source give for `O=S(=O)(NCCNC/C=C/c1ccc(Br)cc1)c1cccc2cnccc12` [H-89, reference compound] here?
Answer: The value was “could also be blocked”.

Question: With `CCCCC[C@H](O)/C=C/[C@H]1[C@H](O)CC(=O)[C@@H]1CCCCCCC(=O)O` [PGE1, prostaglandin E1, reference compound] as the molecule, how does the DNA repair triggered ([2]; M1 cells stimulated 20 min with various concentrations before 100 μM H2O2) read?
Answer: Its DNA repair triggered is “triggered in all cases DNA repair”.
